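Following 48 hours of exposure in 96-well plates, responses at five concentrations were used to interpolate endpoints linearly. Abbreviation: GI50, concentration required for 50% inhibition of growth. TGI: concentration producing complete growth inhibition.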
Columns and labels:
Assay in all cases: DTP human tumour cell line panel, 48 h
ACHN renal = test system: ACHN renal
CCRF-CEM leukemia = test system: CCRF-CEM leukemia
COLO 205 colon = test system: COLO 205 colon
HL-60(TB) leukemia = test system: HL-60(TB) leukemia
HOP-62 NSCLC = test system: HOP-62 NSCLC
LOX IMVI melanoma = test system: LOX IMVI melanoma
NCI-H460 lung = test system: NCI-H460 lung
OVCAR-5 ovarian = test system: OVCAR-5 ovarian
SF-295 CNS = test system: SF-295 CNS
TK-10 renal = test system: TK-10 renal

Compound `Cc1ccccc1NC(=O)C(=O)C(C#N)c1ccc(Cl)cc1` (stereo not given) has a TGI (ACHN renal) greater than 100 µM, a TGI (CCRF-CEM leukemia) greater than 100 µM and a TGI (COLO 205 colon) greater than 100 µM. For the same compound, the TGI (HL-60(TB) leukemia) was greater than 100 µM, the TGI (HOP-62 NSCLC) was greater than 100 µM and the TGI (LOX IMVI melanoma) was 31 µM. The TGI (NCI-H460 lung) was 56 µM, the TGI (OVCAR-5 ovarian) was greater than 100 µM and the TGI (SF-295 CNS) was greater than 100 µM. For the same compound, the TGI (TK-10 renal) was greater than 100 µM.
For `O=C(O)CCNc1ccccc1C(=O)O`, the TGI (ACHN renal) was greater than 100 µM, the TGI (CCRF-CEM leukemia) was greater than 100 µM and the TGI (COLO 205 colon) was greater than 100 µM. For the same compound, the TGI (HL-60(TB) leukemia) was greater than 100 µM, the TGI (HOP-62 NSCLC) was greater than 100 µM and the TGI (LOX IMVI melanoma) was greater than 100 µM. It also gave a TGI (NCI-H460 lung) greater than 100 µM, a TGI (OVCAR-5 ovarian) greater than 100 µM and a TGI (SF-295 CNS) greater than 100 µM. The TGI (TK-10 renal) was greater than 100 µM.
Compound `CN1C(=O)CC(c2cccc(C3CC(=O)N(C)C3=O)n2)C1=O` (stereo not given) has a TGI (ACHN renal) greater than 100 µM, a TGI (CCRF-CEM leukemia) greater than 100 µM and a TGI (COLO 205 colon) greater than 100 µM. For the same compound, the TGI (HL-60(TB) leukemia) was greater than 100 µM, the TGI (HOP-62 NSCLC) was greater than 100 µM and the TGI (LOX IMVI melanoma) was greater than 100 µM. The TGI (NCI-H460 lung) was greater than 100 µM, the TGI (OVCAR-5 ovarian) was greater than 100 µM and the TGI (SF-295 CNS) was greater than 100 µM. For the same compound, the TGI (TK-10 renal) was greater than 100 µM.
In the case of `Clc1ccc(CSC(Cn2ccnc2)c2ccc(Cl)cc2Cl)cc1` (stereo not given), the GI50 (ACHN renal) is reported as 2.28 µM, the TGI (ACHN renal) is reported as 6.5 µM and the GI50 (CCRF-CEM leukemia) is reported as 1.94 µM. For the same compound, the TGI (CCRF-CEM leukemia) was 5.46 µM, the GI50 (COLO 205 colon) was 1.5 µM and the TGI (COLO 205 colon) was 2.83 µM. For the same compound, the GI50 (HL-60(TB) leukemia) was 2.15 µM, the TGI (HL-60(TB) leukemia) was 4.54 µM and the GI50 (HOP-62 NSCLC) was 1.41 µM. It also gave a TGI (HOP-62 NSCLC) of 2.73 µM, a GI50 (LOX IMVI melanoma) of 1.59 µM and a TGI (LOX IMVI melanoma) of 2.93 µM. It also gave a GI50 (NCI-H460 lung) of 1.47 µM, a TGI (NCI-H460 lung) of 2.78 µM and a GI50 (OVCAR-5 ovarian) of 2.13 µM. For the same compound, the TGI (OVCAR-5 ovarian) was 6.84 µM, the GI50 (SF-295 CNS) was 1.37 µM and the TGI (SF-295 CNS) was 2.89 µM. The GI50 (TK-10 renal) was 1.53 µM and the TGI (TK-10 renal) was 2.89 µM.
Compound `O=C(NC1CCN(Cc2ccccc2)CC1)c1cc(-c2ccncc2)nc2ccc(Cl)cc12` has a GI50 (ACHN renal) of 6.71 µM, a TGI (ACHN renal) of 24.7 µM and a GI50 (CCRF-CEM leukemia) of 21.2 µM. The TGI (CCRF-CEM leukemia) was greater than 100 µM, the GI50 (COLO 205 colon) was 7.76 µM and the TGI (COLO 205 colon) was 42.7 µM. It also gave a GI50 (HL-60(TB) leukemia) of 17.3 µM, a TGI (HL-60(TB) leukemia) of 59.6 µM and a GI50 (HOP-62 NSCLC) of 14.5 µM. It also gave a TGI (HOP-62 NSCLC) greater than 100 µM, a GI50 (LOX IMVI melanoma) of 12 µM and a TGI (LOX IMVI melanoma) of 29.6 µM. For the same compound, the GI50 (NCI-H460 lung) was 11.4 µM, the TGI (NCI-H460 lung) was 33.7 µM and the GI50 (OVCAR-5 ovarian) was 13.9 µM. It also gave a TGI (OVCAR-5 ovarian) greater than 100 µM, a GI50 (SF-295 CNS) of 17.4 µM and a TGI (SF-295 CNS) of 53.5 µM. For the same compound, the GI50 (TK-10 renal) was 29.7 µM and the TGI (TK-10 renal) was greater than 91.8 µM.
For `N#Cc1c(-c2ccccc2)nc(SCC2CO2)nc1N1CCOCC1` (stereo not given), the GI50 (ACHN renal) was 4.27 µM, the TGI (ACHN renal) was greater than 100 µM and the GI50 (CCRF-CEM leukemia) was greater than 31 µM. It also gave a TGI (CCRF-CEM leukemia) greater than 100 µM, a GI50 (COLO 205 colon) of 11.3 µM and a TGI (COLO 205 colon) of 67.6 µM. The GI50 (HL-60(TB) leukemia) was 8.88 µM, the TGI (HL-60(TB) leukemia) was greater than 100 µM and the GI50 (HOP-62 NSCLC) was 6.8 µM. For the same compound, the TGI (HOP-62 NSCLC) was greater than 86.8 µM, the GI50 (LOX IMVI melanoma) was 9.49 µM and the TGI (LOX IMVI melanoma) was greater than 100 µM. The GI50 (NCI-H460 lung) was 6.59 µM, the TGI (NCI-H460 lung) was greater than 100 µM and the GI50 (OVCAR-5 ovarian) was 5.05 µM. The TGI (OVCAR-5 ovarian) was greater than 83.3 µM, the GI50 (SF-295 CNS) was 2.67 µM and the TGI (SF-295 CNS) was 28.2 µM. It also gave a GI50 (TK-10 renal) of 4.88 µM and a TGI (TK-10 renal) of 99 µM.
`NCCNc1c2c(c(NCCN)c3c(CO)c[nH]c13)C(=O)c1ccccc1C2=O` was tested, and the GI50 (ACHN renal) was 35.9 µM, the TGI (ACHN renal) was greater than 100 µM and the GI50 (CCRF-CEM leukemia) was 4.28 µM. It also gave a TGI (CCRF-CEM leukemia) greater than 100 µM, a GI50 (COLO 205 colon) of 8.38 µM and a TGI (COLO 205 colon) greater than 100 µM. It also gave a GI50 (HL-60(TB) leukemia) of 43.4 µM, a TGI (HL-60(TB) leukemia) greater than 100 µM and a GI50 (HOP-62 NSCLC) of 4.22 µM. It also gave a TGI (HOP-62 NSCLC) greater than 100 µM, a GI50 (LOX IMVI melanoma) of 8.32 µM and a TGI (LOX IMVI melanoma) greater than 100 µM. It also gave a GI50 (NCI-H460 lung) of 25.7 µM, a TGI (NCI-H460 lung) greater than 100 µM and a GI50 (OVCAR-5 ovarian) of 48.7 µM. It also gave a TGI (OVCAR-5 ovarian) greater than 100 µM, a GI50 (SF-295 CNS) of 6.16 µM and a TGI (SF-295 CNS) of 43.8 µM. For the same compound, the GI50 (TK-10 renal) was 20.7 µM and the TGI (TK-10 renal) was 75.1 µM.
`COc1ccc(C2CC(=O)c3c(O)cc(O)cc3O2)cc1O` (stereo not given) showed a TGI (ACHN renal) greater than 100 µM, a TGI (CCRF-CEM leukemia) greater than 100 µM and a TGI (COLO 205 colon) greater than 100 µM. For the same compound, the TGI (HL-60(TB) leukemia) was greater than 100 µM, the TGI (HOP-62 NSCLC) was greater than 100 µM and the TGI (LOX IMVI melanoma) was greater than 100 µM. The TGI (NCI-H460 lung) was greater than 100 µM, the TGI (OVCAR-5 ovarian) was greater than 100 µM and the TGI (SF-295 CNS) was greater than 100 µM. The TGI (TK-10 renal) was greater than 100 µM.

Source: PubChem BioAssay (NCI)
